Laboratory results reported in US20020142347A1, “Biosensor” (BIOSENSOR ApS, priority 2000, published 2002).
Several values for one entry are separate records, joined by “and”; a condition that tells them apart may be missing. Equal entries are not always repeated. Where two headings read alike, the source gives them in different places.

What was measured:
FACI-24 [1] = target: T1, FACI-24 (Bos taurus, UniProt P07107, M25C); assay: Fluorescence emission change of FACI-24 on titration with CoA and acyl-CoA esters; type: binding, bovine; details: for Downshift in emission maximum of FACI-24: emission maximum without ligand 510 nm, excitation 400 nm
T1 construct: made in house; host or cells: E. coli BL21(DE3)pLysS, pET3a vector
T1 sequence (P07107 2-87 M25C): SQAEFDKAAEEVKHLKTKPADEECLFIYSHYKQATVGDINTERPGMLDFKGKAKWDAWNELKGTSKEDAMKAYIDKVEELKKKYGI
Description: (§1) Quantitative determination of binding affinities (KD) were performed by isothermal titration micro calorimetry as previously described (Faergeman et. al., 1996; Biochemistry 35, 14118-14126). Qualitative evaluation of relative binding affinities were determined by isoelectrical focusing using the Pharmacia Fast Gel system according to the prescriptions given by the manufacture. Fluorescence emission changes induced by acyl-CoA binding to badan modified protein were determined as follows: 5 μl portions of acyl-CoAs were added from stock solutions disolved in binding buffer, (10 mM Hepes, 150 mM NaCL, 1 mM NaHPO4, pH 7.4) containing 3.4 μM Badan derivatized protein to a 1 ml 3.4 μM solution of the Badan derivatized ACBP in the same buffer. The fluorescence emission was measured on a SPEX FLOUROLOG (Industries Inc, Edison N.J., USA) with excitation at 400 nm and emission scan from 400 nm to 550 nm. The concentration of acyl-CoA in the aqueous phase was determined from the fluorescence emission sensitivities at 495 and 470 nm repectively essentially by the method described by (Grynkiewickz et. al.,1985, J. Biol. Chem. 260, 3440-3450) according to which:
(§2) Fluorescence titration emission spectra from 415 nm to 550 nm (excitation at 400 nm) were performed for CoA, C4:0-, C8:0-, C12:0-, C16:0-, and C20:0-CoA with all four mutated and badan modified proteins.
The emission maximum of FACI-24 without ligand added was 510 nm and titration with CoA, C4:0-, C8:0-, C12:0-, […], C16:0- and C20:0-CoA caused 0, 16, 34, 42, 46 and 46 nm downshift in emission maximum, respectively (results not shown). C16:0-CoA induced a 5,5 fold increase in emission at 464 nm (FIG. 10).
(§3) Titration of FACI with acyl-CoAs was done using a SPEX FLOUROLOG (Industries Inc, Edison N.J., USA) with excitation at 387 nm and emission at 460 nm, with both excitation and emission slits set to 4.5 nm. FACI (0.5-4.5 uM, as indicated) was dissolved in 1.5 ml binding buffer (10 mM HEPES 150 mM NaCl, 5 mM KCl, 1 mM Na2HPO4, pH 7.4) and titrated with a 10 μM acyl-CoA dissolved in binding buffer, with or without FACI added, as indicated. Fluorescence emission values (counts per second) measured without FACI added to the ligand stock solution were corrected for titrand dilution.

FACI53 [2] = target: T2, FACI53 (Bos taurus, UniProt P07107, A54C); assay: Fluorescence emission change of FACI-53 on titration with CoA and acyl-CoA esters; type: binding, bovine; details: for Fluorescence emission maximum of FACI-53 with ligand: 525 nm when no ligand present, excitation 400 nm; for Relative emission of FACI-53 at 495 nm, fold increase: emission at 495 nm
T2 construct: badan (6-bromoacetyl-2-dimethylaminonaphthalene) fluorophore on the introduced Cys-53; made in house; host or cells: E. coli BL21(DE3)pLysS, pET3a vector
T2 sequence (P07107 2-87 A54C): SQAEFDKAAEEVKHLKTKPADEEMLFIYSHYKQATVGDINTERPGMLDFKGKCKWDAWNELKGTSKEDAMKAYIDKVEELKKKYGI
Description: as §1, §2
Titration of FACI-53 dissolved in binding buffer with the above mentioned acyl-CoA esters produced a smooth downward shift in fluorescence emission maximum from 525 nm when no ligand was present to 508, 503, 490, 492, 496 and 514 with increasing concentrations of CoA, C4:0-, C8:0-, C12:0-, C16:0- and C20:0-CoA respectively.

FACI-24 [3] = target: T1, FACI-24; assay: Fluorescence titration equilibrium binding analysis of CoA and acyl-CoA esters to FACI-24; design: species or system bovine
Description: Development of a mathematical expression describing the relationship between acyl-CoA concentration and FACI-24 fluorescence was performed essentially as by Richieri et al 1992, J Biol Chem, 267:23495-23501. However, where ligand binding to ADIFAB induces both a fluorescence intensity increase around 505 nm and a fluorescence intensity decrease around 432 nm, ligand binding to FACI-24 only causes an increase in fluorescence around 460 nm.
Derivatisation of an expression for the fluorescence value as a function of the acyl-coA concentration was done using the Scatchard equation as a starting point: [formula]
which has been used to fit the titration data.
The curves represent the best fit analysis from two independent experiment calculated and normalized as described above. The FACI-24 binding affinity increases dramatically when the acyl-chain length increases from C8 to C10 and C12, a smaller but significant drop in Kd is seen by increasing chain length from C12 to C14. C14 to C18 saturated acyl-CoA esters and C18:1-CoA binds with similar and very high affinities to FACI-24. In >0.1 M salt, FACI-24 binds acyl-CoAs with higher affinity and similar specificity as native unmodified bovine ACBP. The Kd for binding of C12-CoA and C16-CoA to native ACBP is 40 and 2.0 nM, respectively (Fulcery et al Biochemical, 1997, 325:423-428; Færgeman et al 1996, Biochemistry, 35:14118-14126). FACI-24 is highly specific for binding long-chain acyl-CoA esters.
as §3
Up to four parameters were fitted in this way, these were B, representing the point of saturation on the X axis, H, representing the maximum fluorescence, i.e. the fluorescence at saturating concentration of acyl-CoA, L, the minimum fluorescence value, i.e. the fluorescence of FACI-24 alone in buffer, and K, the Kd value lor the acyl-CoA in question. Initial estimates for the fittable parameters were typically: B=1, H=maximum fluorescence value measured, L=minimum fluorescence value measured (at acyl-CoA-concentration=0), and K as judged from the raw data, typically from 0.0001 uM to 0.1 uM for acyl-CoA longer than C10:0-CoA.
For each acyl-CoA at least two titrations and fittings were performed. To consider two or more titrations of the same acyl-CoA together and obtain a Kd value using all these titrations, both axes of the raw data were standardised using the fitted values of B, H and L in this way:
X axis standard=(raw X axis values)/Bfitted
Y axis standard=[(raw Y axis values)−Lfitted]/[Hfitted−Lfitted]
In this way all Y axis values should come to lie between 0 and 1 and the X axis value should be 1 at the point of saturation (FACI-24:acyl-CoA 1:1). Such adjusted data were pooled and fitted using DataFit. Typically, both H and B fitted to values close to 1 and L fitted to values close to 0. K was typically fitted to values somewhere between the two values obtained for the raw data.
This could be overcome by removing B from the fittable parameters list and instead setting it to a constant value of 1 and fitting again. This was typically done for both the raw and the standardised data.

native bovine ACBP = target: T3, native bovine ACBP (Bos taurus, UniProt P07107); details: literature, read-out: KD for binding to native bovine ACBP, cited from earlier work
T3 sequence (P07107 1-87): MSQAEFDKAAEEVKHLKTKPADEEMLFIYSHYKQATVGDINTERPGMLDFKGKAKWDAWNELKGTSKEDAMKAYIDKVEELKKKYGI

FACI53 [4] = target: T2, FACI53; assay: Isoelectrical focusing of acyl-CoA binding to FACI53; design: species or system bovine; details: ligand in four-fold molar excess over protein
Description: All the gels were prepared with ligands (1-7) in four-fold molar excess over protein. […] The protein-ligand complex shifted to a pl around 3.8. Legend: 1: Water, 2: CoA-SH, 3: C4-CoA, 4: C8-CoA, 5: C12-CoA, 6: C16-CoA, 7: C20-CoA, 8: Broad pl Calibration Kit (pH 3-10).
as §1, with “The concentration of acyl-CoA in the aqueous phase was determined from the fluorescence emission sensitivities at 495 and 470 nm repectively essentially by the method described by (Grynkiewickz et. al.,1985, J. Biol. Chem. 260, 3440-3450) according to which:” left out

[5] = FACI-24 (1.5 μM) titrated with increasing CoA and acyl-CoA concentration, fitted binding curves, emission 460 nm, read-out: Kd (nM) ± S.E.

CCCC(=O)SCCNC(=O)CCNC(=O)[C@H](O)C(C)(C)COP(=O)(O)OP(=O)(O)OC[C@H]1O[C@@H](n2cnc3c(N)ncnc32)[C@H](O)[C@@H]1OP(=O)(O)O [C4:0-CoA]
Downshift in emission maximum of FACI-24 (FACI-24 [1]): 16 nm | Magnitude of emission of FACI-53, fold increase (FACI53 [2]): 1.8 fold | Fluorescence emission maximum of FACI-53 with ligand (FACI53 [2]): 503 nm | Relative emission of FACI-53 at 495 nm, fold increase (FACI53 [2]): 2.8 fold | Kd (FACI-24 [3]; [5]): 1500 ± 223 nM

CCCCCCCC(=O)SCCNC(=O)CCNC(=O)[C@H](O)C(C)(C)COP(=O)(O)OP(=O)(O)OC[C@H]1O[C@@H](n2cnc3c(N)ncnc32)[C@H](O)[C@@H]1OP(=O)(O)O [C8:0-CoA]
Downshift in emission maximum of FACI-24 (FACI-24 [1]): 34 nm | Magnitude of emission of FACI-53, fold increase (FACI53 [2]): 2.9 fold | Fluorescence emission maximum of FACI-53 with ligand (FACI53 [2]): 490 nm | Relative emission of FACI-53 at 495 nm, fold increase (FACI53 [2]): 4.8 fold | Kd (FACI-24 [3]; [5]): 342 ± 31.9 nM

CCCCCCCCCC(=O)SCCNC(=O)CCNC(=O)[C@H](O)C(C)(C)COP(=O)(O)OP(=O)(O)OC[C@H]1O[C@@H](n2cnc3c(N)ncnc32)[C@H](O)[C@@H]1OP(=O)(O)O [C10:0-CoA]
Kd (FACI-24 [3]; [5]): 61.8 ± 2.49 nM

CCCCCCCCCCCCCC(=O)SCCNC(=O)CCNC(=O)[C@H](O)C(C)(C)COP(=O)(O)OP(=O)(O)OC[C@H]1O[C@@H](n2cnc3c(N)ncnc32)[C@H](O)[C@@H]1OP(=O)(O)O [C14:0-CoA]
Kd (native bovine ACBP; isothermal titration microcalorimetry, >0.1 M salt): 0.016 µM | Kd (FACI-24 [3]; [5]): 1.66 ± 0.26 nM | Kd (FACI-24 [3]; titration equilibrium analysis, >0.1 M salt, read-out: KD for binding to FACI24): 1.7 nM

CCCCCCCCCCCCCCCCCC(=O)SCCNC(=O)CCNC(=O)[C@H](O)C(C)(C)COP(=O)(O)OP(=O)(O)OC[C@H]1O[C@@H](n2cnc3c(N)ncnc32)[C@H](O)[C@@H]1OP(=O)(O)O [C18:0-CoA]
Kd (FACI-24 [3]; [5]): 1.65 ± 0.83 nM

CCCCCCCCCCCCCCCCCCCC(=O)SCCNC(=O)CCNC(=O)[C@H](O)C(C)(C)COP(=O)(O)OP(=O)(O)OC[C@H]1O[C@@H](n2cnc3c(N)ncnc32)[C@H](O)[C@@H]1OP(=O)(O)O [C20:0-CoA]
Binding to FACI53 by isoelectrical focusing (FACI53 [4]): shown to bind | Downshift in emission maximum of FACI-24 (FACI-24 [1]): 46 nm | Fluorescence response of FACI-53 (FACI53 [2]): hardly responded | Magnitude of emission of FACI-53, fold increase (FACI53 [2]): 0.8 fold | Fluorescence emission maximum of FACI-53 with ligand (FACI53 [2]): 514 nm | Relative emission of FACI-53 at 495 nm, fold increase (FACI53 [2]): 0.8 fold

CC(C)(COP(=O)(O)OP(=O)(O)OC[C@H]1O[C@@H](n2cnc3c(N)ncnc32)[C@H](O)[C@@H]1OP(=O)(O)O)[C@@H](O)C(=O)NCCC(=O)NCCS [CoASH, Coenzyme A]
Fluorescence response of FACI-24 (FACI-24 [1]): Neither FACI24 or FACI53 respond significantly | Fold increase in FACI-24 fluorescence emission at 460 nm (FACI-24 [1]; emission at 460 nm): 3 fold | Downshift in emission maximum of FACI-24 (FACI-24 [1]): 0 nm | Kd (native bovine ACBP): 2 µM | Magnitude of emission of FACI-53, fold increase (FACI53 [2]): 1.1 fold | Fluorescence emission maximum of FACI-53 with ligand (FACI53 [2]): 508 nm | Relative emission of FACI-53 at 495 nm, fold increase (FACI53 [2]): 1.5 fold | Fluorescence response of FACI-53 (FACI53 [2]; listed as CoA): hardly responded | Fluorescence response of FACI-53 (FACI53 [2]; listed as free CoA): Neither FACI24 or FACI53 respond significantly | Kd (FACI-24 [3]; [5]): 2450 ± 249 nM | Kd (FACI-24 [3]; read-out: Kd for binding to FACI-24): 2500 nM and 2000 nM

C18:1-CoA
Kd (FACI-24 [3]; [5]): 0.59 ± 0.19 nM

B1: FACI-53: badan derivative of A53C-bovine ACBP (Fluorescent Acyl-CoA Indicator 53) (conjugate, UniProt P07107 2-87, looked up, variant A53C)
Acyl-CoA-binding protein: SQAEFDKAAEEVKHLKTKPADEEMLFIYSHYKQATVGDINTERPGMLDFKGKCKWDAWNELKGTSKEDAMKAYIDKVEELKKKYGI
modifications: badan label
Emission maximum of FACI53 on titration with ligand (FACI53 [2]; FIG. 3): 487 nm | Fluorescence emission maximum of FACI-53, no ligand present (FACI53 [2]; no ligand): 525 nm

B2: FACI-24: badan derivative of M24C-bovine ACBP (Fluorescent modified Acyl-CoA Indicator 24) (conjugate, UniProt P07107 2-87, looked up, variant M24C)
Acyl-CoA-binding protein: SQAEFDKAAEEVKHLKTKPADEECLFIYSHYKQATVGDINTERPGMLDFKGKAKWDAWNELKGTSKEDAMKAYIDKVEELKKKYGI
modifications: badan label
Emission maximum of FACI24 on titration with ligand (FACI-24 [1]; FIG. 2): 465 nm | Emission maximum of FACI-24 without ligand added (FACI-24 [1]; no ligand): 510 nm
